ChEMBL document CHEMBL1201862, “PubChem BioAssay data set” (2004)
Active and inactive are the calls of the source.

Columns and labels:
SUMO-activating enzyme = SUMO-activating enzyme (Homo sapiens, UniProt Q9UBT2); assay: inhibitors of in vitro SUMOylation cascade, primary screen, biochemical, HTRF, uHTS (AID 2006); assay type: protein-complex assay
Hexokinase HKDC1 = molecular target: T1, Hexokinase HKDC1 (Homo sapiens, UniProt Q2TB90); assay: HKDC1 hexokinase inhibitors, SAR follow-up, biochemical, set 2 (AID 588355); assay type: functional
T1 sequence (Q2TB90 whole entry): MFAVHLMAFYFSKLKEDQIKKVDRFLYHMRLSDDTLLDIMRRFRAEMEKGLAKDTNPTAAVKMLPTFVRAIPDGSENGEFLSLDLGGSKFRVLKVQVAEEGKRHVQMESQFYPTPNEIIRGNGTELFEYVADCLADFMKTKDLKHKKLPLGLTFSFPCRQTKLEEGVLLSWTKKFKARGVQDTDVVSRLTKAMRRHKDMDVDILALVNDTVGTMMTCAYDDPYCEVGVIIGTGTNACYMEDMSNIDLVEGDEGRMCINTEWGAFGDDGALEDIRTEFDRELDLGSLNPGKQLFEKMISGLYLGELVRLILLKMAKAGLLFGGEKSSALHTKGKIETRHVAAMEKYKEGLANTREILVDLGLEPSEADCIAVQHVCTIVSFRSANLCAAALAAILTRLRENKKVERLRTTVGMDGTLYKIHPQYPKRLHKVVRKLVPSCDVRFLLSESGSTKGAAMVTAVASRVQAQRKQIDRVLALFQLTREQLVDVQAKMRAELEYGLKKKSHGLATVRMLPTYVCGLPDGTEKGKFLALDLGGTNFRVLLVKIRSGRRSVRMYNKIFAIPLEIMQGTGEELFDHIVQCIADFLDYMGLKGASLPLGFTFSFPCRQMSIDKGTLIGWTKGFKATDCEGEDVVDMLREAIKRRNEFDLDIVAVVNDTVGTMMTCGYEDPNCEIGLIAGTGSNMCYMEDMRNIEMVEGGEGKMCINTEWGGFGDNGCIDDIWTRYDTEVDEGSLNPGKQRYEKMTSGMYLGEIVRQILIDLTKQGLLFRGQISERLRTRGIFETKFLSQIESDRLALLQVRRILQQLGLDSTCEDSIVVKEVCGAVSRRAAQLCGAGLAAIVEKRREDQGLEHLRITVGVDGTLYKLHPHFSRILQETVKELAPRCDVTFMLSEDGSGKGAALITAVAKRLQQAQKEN

Protein RecA = molecular target: T2, Protein RecA (Mycobacterium tuberculosis, UniProt P9WHJ3); assay: Fluorescence Cell-Free Homogeneous Dose Retest to Identify Inhibitors of RecA-Intein Splicing Activity. [Related pubchem assays (depositor defined):AID2097, AID2223, AID489010, AID492950]; assay type: functional
T2 sequence (P9WHJ3 whole entry): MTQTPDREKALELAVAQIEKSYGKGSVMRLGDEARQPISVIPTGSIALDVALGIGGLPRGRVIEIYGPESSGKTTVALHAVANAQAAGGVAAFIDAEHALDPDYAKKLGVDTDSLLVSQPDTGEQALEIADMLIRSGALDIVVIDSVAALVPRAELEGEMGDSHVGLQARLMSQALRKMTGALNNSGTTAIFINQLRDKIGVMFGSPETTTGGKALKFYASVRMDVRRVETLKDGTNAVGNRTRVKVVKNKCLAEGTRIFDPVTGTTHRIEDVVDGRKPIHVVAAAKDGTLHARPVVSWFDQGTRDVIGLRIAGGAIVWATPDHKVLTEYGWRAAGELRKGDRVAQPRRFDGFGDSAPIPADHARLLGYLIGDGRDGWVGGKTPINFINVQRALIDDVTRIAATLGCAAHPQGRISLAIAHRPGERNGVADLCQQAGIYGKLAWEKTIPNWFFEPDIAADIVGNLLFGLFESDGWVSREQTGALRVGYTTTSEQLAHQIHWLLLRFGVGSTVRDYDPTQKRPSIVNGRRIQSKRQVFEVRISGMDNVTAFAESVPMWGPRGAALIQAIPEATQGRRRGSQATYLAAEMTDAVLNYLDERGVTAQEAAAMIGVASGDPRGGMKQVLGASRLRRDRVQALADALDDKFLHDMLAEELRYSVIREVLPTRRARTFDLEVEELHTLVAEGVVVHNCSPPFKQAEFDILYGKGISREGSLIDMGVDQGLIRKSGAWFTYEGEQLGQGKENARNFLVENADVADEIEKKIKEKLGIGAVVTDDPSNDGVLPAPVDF

[1] = molecular target: Serine/threonine-protein kinase MRCK alpha (Homo sapiens, UniProt Q5VT25); assay type: functional
[2] = molecular target: Inhibitor of nuclear factor kappa-B kinase subunit beta (Homo sapiens, UniProt O14920); assay type: functional
[3] = molecular target: Tyrosine-protein kinase FRK (Homo sapiens, UniProt P42685); assay type: functional;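 further: FRK tested as one member of a kinome panel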
[4] = molecular target: Phosphorylase b kinase gamma catalytic chain, liver/testis isoform (Homo sapiens, UniProt P15735); assay type: functional;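 further: PHKG2 measured as one member of a kinome-wide kinase panel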
[5] = molecular target: Cell division cycle 7-related protein kinase (Homo sapiens, UniProt O00311); assay type: functional;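 further: value obtained from a kinome-wide kinase panel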
[6] = molecular target: Serine/threonine-protein kinase BRSK1 (Homo sapiens, UniProt Q8TDC3); assay type: functional;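 further: measured within a kinome-wide kinase panel, with the target listed as KIAA1811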
Serine/threonine-protein kinase BRSK1, sequence (Q8TDC3 whole entry): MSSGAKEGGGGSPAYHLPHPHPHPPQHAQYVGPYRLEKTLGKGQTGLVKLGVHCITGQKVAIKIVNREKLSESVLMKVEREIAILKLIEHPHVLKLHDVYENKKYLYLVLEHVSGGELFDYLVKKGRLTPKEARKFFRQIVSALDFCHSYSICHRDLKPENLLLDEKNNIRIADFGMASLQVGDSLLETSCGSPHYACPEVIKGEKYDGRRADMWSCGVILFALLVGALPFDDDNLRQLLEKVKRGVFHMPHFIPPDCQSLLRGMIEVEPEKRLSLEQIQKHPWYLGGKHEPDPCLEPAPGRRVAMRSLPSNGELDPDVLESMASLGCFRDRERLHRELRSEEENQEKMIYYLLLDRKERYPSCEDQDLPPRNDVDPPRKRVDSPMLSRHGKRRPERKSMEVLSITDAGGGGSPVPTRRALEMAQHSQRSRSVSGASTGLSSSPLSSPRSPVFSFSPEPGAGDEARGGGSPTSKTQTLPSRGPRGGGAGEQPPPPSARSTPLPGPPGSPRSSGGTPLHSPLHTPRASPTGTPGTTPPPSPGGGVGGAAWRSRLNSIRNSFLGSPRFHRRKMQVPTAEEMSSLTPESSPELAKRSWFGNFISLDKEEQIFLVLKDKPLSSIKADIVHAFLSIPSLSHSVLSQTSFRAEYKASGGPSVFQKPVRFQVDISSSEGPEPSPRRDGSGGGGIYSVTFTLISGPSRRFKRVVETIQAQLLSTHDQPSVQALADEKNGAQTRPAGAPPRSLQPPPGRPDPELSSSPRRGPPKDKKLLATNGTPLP

Cell division cycle 7-related protein kinase, sequence (O00311 whole entry): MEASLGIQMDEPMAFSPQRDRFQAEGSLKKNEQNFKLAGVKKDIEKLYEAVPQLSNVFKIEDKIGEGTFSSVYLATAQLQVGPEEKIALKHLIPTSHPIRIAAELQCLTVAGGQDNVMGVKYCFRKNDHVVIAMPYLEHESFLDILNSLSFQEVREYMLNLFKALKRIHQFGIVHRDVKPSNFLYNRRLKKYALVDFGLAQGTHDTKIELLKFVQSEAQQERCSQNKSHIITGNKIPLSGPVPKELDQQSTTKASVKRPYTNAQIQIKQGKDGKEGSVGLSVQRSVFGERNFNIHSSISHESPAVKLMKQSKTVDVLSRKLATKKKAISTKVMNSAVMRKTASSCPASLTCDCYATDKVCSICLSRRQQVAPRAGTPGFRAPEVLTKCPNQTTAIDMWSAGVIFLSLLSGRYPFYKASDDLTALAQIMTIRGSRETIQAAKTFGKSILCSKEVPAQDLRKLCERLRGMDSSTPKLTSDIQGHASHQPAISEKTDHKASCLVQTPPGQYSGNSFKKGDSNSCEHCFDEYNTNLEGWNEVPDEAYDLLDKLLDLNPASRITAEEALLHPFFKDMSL
Serine/threonine-protein kinase MRCK alpha, sequence (Q5VT25 whole entry): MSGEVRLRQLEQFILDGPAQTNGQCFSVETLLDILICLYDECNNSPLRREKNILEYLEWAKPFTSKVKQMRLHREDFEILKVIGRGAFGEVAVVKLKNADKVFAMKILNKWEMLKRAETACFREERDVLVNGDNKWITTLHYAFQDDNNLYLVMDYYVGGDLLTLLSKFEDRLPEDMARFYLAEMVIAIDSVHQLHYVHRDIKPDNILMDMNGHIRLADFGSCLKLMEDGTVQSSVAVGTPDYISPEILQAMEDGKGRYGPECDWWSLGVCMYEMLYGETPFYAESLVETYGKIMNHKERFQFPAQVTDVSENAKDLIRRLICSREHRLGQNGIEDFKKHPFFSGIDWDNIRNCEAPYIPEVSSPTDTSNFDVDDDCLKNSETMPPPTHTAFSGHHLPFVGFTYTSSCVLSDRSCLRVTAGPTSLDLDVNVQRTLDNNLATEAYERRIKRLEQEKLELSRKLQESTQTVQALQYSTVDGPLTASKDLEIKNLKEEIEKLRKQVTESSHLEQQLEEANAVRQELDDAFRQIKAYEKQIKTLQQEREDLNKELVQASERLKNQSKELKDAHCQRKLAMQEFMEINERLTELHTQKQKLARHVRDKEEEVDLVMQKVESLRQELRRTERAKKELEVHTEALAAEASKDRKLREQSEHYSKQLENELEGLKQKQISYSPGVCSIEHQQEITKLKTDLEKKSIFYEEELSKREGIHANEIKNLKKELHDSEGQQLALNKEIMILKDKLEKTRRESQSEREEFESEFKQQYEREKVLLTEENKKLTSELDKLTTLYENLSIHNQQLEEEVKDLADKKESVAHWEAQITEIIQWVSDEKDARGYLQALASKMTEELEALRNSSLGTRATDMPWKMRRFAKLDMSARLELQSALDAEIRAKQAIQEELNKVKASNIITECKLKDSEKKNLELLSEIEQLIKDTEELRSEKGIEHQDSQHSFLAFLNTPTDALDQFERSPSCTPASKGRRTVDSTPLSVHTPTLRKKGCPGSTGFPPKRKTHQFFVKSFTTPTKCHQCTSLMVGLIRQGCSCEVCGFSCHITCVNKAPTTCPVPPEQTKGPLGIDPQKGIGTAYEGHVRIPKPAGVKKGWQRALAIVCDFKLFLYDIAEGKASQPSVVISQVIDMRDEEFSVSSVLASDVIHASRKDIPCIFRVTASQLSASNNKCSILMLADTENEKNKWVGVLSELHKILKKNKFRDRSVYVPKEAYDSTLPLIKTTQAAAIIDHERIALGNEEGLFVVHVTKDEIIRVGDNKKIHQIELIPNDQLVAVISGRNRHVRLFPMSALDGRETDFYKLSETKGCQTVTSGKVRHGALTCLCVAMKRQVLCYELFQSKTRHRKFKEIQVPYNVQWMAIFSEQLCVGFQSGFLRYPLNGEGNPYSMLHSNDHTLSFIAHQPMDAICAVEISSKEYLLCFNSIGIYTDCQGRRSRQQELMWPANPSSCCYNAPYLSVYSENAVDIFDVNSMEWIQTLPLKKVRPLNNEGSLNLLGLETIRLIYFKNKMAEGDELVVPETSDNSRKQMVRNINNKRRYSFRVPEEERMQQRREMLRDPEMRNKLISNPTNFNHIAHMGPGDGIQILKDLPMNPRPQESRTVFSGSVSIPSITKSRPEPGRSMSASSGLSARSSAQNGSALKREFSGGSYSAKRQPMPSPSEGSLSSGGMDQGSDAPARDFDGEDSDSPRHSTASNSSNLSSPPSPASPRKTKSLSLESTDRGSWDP
Tyrosine-protein kinase FRK, sequence (P42685 whole entry, canonical isoform): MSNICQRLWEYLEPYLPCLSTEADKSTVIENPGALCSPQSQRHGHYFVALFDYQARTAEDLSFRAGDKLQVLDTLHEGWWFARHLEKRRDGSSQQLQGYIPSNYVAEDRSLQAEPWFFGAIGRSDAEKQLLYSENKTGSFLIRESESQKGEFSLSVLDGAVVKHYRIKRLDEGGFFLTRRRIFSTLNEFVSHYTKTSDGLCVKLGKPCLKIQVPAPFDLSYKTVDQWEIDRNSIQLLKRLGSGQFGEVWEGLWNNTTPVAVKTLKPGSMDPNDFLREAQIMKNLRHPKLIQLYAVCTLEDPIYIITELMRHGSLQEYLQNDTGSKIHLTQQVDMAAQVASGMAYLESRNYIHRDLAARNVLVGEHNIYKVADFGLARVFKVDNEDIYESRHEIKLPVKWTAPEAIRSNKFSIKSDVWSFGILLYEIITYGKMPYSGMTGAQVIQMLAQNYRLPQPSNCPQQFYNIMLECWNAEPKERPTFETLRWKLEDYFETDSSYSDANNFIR
Phosphorylase b kinase gamma catalytic chain, liver/testis isoform, sequence (P15735 whole entry, canonical isoform): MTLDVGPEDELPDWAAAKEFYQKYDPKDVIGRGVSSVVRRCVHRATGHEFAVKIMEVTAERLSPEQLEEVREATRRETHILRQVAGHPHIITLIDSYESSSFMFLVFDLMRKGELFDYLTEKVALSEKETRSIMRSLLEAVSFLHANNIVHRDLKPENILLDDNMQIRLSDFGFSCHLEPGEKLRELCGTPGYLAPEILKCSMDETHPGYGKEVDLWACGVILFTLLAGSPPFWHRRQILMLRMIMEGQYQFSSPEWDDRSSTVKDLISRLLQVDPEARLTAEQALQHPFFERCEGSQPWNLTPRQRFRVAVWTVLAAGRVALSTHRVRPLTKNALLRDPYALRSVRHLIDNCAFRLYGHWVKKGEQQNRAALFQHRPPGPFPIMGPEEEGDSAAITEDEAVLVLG
Inhibitor of nuclear factor kappa-B kinase subunit beta, sequence (O14920 whole entry): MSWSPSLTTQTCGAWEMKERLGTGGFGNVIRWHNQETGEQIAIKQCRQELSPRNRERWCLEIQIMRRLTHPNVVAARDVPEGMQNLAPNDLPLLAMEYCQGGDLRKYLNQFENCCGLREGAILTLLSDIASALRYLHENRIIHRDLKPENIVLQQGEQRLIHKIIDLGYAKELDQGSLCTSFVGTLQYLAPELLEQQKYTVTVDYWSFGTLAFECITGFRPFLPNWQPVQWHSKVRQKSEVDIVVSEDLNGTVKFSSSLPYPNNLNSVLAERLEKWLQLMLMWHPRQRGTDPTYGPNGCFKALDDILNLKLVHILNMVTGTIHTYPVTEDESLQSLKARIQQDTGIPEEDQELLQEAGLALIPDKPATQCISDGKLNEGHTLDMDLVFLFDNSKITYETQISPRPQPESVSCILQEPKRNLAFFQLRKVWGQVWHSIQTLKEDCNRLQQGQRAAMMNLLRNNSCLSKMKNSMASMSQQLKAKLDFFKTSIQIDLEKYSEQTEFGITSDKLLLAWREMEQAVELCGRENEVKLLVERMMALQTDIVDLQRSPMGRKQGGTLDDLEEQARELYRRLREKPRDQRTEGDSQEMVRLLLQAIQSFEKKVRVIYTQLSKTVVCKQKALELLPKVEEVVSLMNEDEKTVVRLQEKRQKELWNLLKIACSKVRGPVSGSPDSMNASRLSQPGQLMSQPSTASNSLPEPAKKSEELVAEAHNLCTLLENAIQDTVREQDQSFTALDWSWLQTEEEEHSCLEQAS

SMILES: CC(=O)NC1C(=O)N(CCN2CCOCC2)c2ccc(Cl)cc21 (centres undefined)
- IC50 (SUMO-activating enzyme): 13.4 µM (active)
- IC50 (Hexokinase HKDC1): 11.5 µM (active)
- EC50 (Protein RecA): 10.5 µM (active)

SMILES: Cc1c(C=O)c(O)n2c(nc3ccccc32)c1C#N
- Ki [1]: > 10 µM (inactive)
- Ki [2]: > 3.16 µM (inactive)

SMILES: Cc1n[nH]c2cnc(-c3cncc(OCC(N)Cc4cccc(C(F)(F)F)c4)c3)cc12 (centres undefined)
- Ki [3]: > 2.51 µM (inactive)
- Ki [4]: 2.51 µM (active)
- Ki [5]: 0.01 µM (active)
- Ki [6]: 2 µM (active)
